Each block holds one molecule with its values, some of them ahead of it.
How the values were obtained:
Aβ1-40 [1] = target: T1, Aβ1-40 (Homo sapiens, UniProt P05067); assay: Tris-tricine SDS-PAGE, Aβ1-40 self-assembly following ThT aggregation assay; type: biochemical; conditions: FIG. 9
T1 construct: Both Aβ1-40 and Aβ1-42 were purchased from Anaspec; purchased Anaspec
Description: (§1) Pre-cast polyacrylamide gels were purchased from NuSep (10-20% Tris-tricine-SDS). These were chosen for their large separation range of 2.5 to 205 kDa. Molecular weight markers were purchased from Sigma Aldrich and diluted twenty fold for individual use. Three buffers were used for this technique: 1) Sample buffer (1.25 mL 0.5 M Tris-HCl (pH 6.8), 2.5 mL glycerol, 2.0 mL 10% SDS, 0.2 mL 0.5% bromophenol blue, 3.55 mL distilled water) which was used as the leading band in the gel. 2) Cathode Buffer (12.11 g tris base, 17.92 g tricine, 1 g SDS, diluted to 1 L with distilled water) which was the inner buffer in the tank assembly. 3) Anode Buffer (5× concentrated: 121.1 g tris base in 1 L of distilled water, pH 8.9 adjusted with concentrated HCl) which was the outer buffer and loaded at 1× concentration. Both Aβ1-40 and Aβ1-42 were purchased from Anaspec.
(§2) Five solutions were required to stain the gels using the silver stain protocol: 1) Fixer 1 (40% methanol, 10% acetic acid, diluted to 1 L with Millie-Q water) 2) Fixer 2 (45 g anhydrous sodium acetate, 300 mL methanol, 5 mL 25% glutaraldehyde, diluted to 1 L with Millie-Q water), 3) a) Silver stain A (15 mL of 25% ammonia solution, 0.8 g sodium hydroxide, diluted to 950 mL with Millie Q water). b) Silver stain B (6 g of silver nitrate in 50 mL Millie Q water). Solution B was then slowly added to solution A. 4) Developer (0.1 g citric acid, 1 mL formaldehyde, diluted to 1 L with Millie-Q water), 5) Stop solution (50 mL acetic acid, diluted to 1 L with Millie-Q water).
(§3) Following a ThT (Aβ1-40) or ThS (Tau 441) aggregation assay, described in Example 8 of US2007/0015813, samples were immediately aspirated and stored in centrifuge tubes. 10 μL of each sample was transferred to a microfuge tube and diluted 1:1 with sample buffer before being incubated (37° C.) for 30 minutes and loaded in the precast gels (15 μL in each well). The gel was then run at 100 V for approximately one hour or until the leading band reached the bottom of the gel.
(§4) Once the gel had finished running, it was removed from its plastic case and placed in a tray for staining. Approximately 200-250 mL volume was used for all the solutions. The gel was first washed with distilled water briefly to rinse off the excess buffer from the tank. It was then immersed in Fixer 1 for 30 minutes. followed by Fixer 2 for 30 minutes. Once the gel was fixed it then underwent three water washes at 10 minutes per wash. After the water washes, the gel was stained for 30 minutes using the silver stain solution. Excess stain was removed using three four-minute water washes. The gel was then immersed in the developer solution to visualize the stain. This took place for approximately 5 minutes or until the desired intensity was reached. To immediately stop the developing process the gel was placed in the stop solution for 10 minutes.

Aβ1-40 [2] = target: T1, Aβ1-40; assay: TEM of Aβ1-40 fibrils; type: biochemical; conditions: Aβ1-40 20 μM
Description: (§5) A modified version of the procedure of Cohen et al. (Biochemistry 2006, 45: 4727-35) was followed for TEM analysis. Uranylacetate was used as negative stain (Electron Microscopy Sciences) and was made as a 3% solution and stored at 5° C. in the dark to reduce photodecay. Aspirated samples from ThT (Aβ1-40) and ThS (Tau 441) aggregation assays, or Aβ1-42 incubated (37° C.) for 30 min. in the presence and absence of compounds were used in the TEM analyses. Samples were carefully loaded on Formvar-coated 400 mesh copper grids (Electron Microscopy Sciences) as a 10 μL drop. After sitting for 60 seconds, excess fluid was gently dabbed off with filter paper. Next, the 3% uranylacetate was added as a drop onto the grid and left to stand for another 60 seconds. The excess fluid was again dabbed off by filter paper. Samples were left to dry for at least 30 minutes prior to being viewed on an electron microscope operating at 80 kV.

Aβ1-40 [3] = target: T1, Aβ1-40; assay: ThT fluorescence assay, inhibition of Aβ1-40 aggregation; type: biochemical
Description: The compounds of the invention were evaluated for activity against Aβ aggregation in a kinetic thioflavin T (ThT) fluorescence assay similar to that of Chalifour, R. J., et al., J. Biol. Chem. (2003) 278: 34874-81. IC50 values for inhibition of Aβ1-40 aggregation in the ThT fluorescence assay for a number compounds of the present invention were determined. Values were calculated by solving the equation y=(m2)/(1+(x/m3)^m4) where y is percent aggregation, x is compound concentration, and m3 is the concentration giving 50% aggregation (i.e. IC50), using KaleidaGraph 4.0 (Synergy Software). Dye-binding ThT/ThS protein aggregation assays for Aβ, tau and α-synuclein were performed as described in Example 8 of US2007/0015813.

[4] = tested on: SH-SY5Y neuroblastoma cells; assay: MTT cell viability assay, protection from Aβ40; type: cell-based; conditions: Aβ40 20 μM
Description: The assay was based on that reported by Conte and co-workers (Conte, A., Pellegrini, s. & Tagliazucchi, D. 2Q03. Brain Res. Bull. 62, 29-38). Briefly, Aβ1-40 (1.0 mg) was dissolved directly in Tris base ([…], […], pH approximately 10). The pH was dropped to 7.4 using concentrated HCl and the solution diluted ten-fold with growth medium consisting of Dulbecco's Modified Eagle Medium (high glucose) containing 10% fetal bovine serum. penicillin-G (10,000 units/mL) and streptomycin (10 mg/mL); giving 20 μM Aβ40. For non-Aβ-containing controls. growth medium was diluted 10% with Tris buffer (20 mM, pH 7.4). SH-SY5Y neuroblastoma cells were seeded at approximately 20,000 cells per well in a covered 96-well clear polystyrene plate and incubated at 37° C., 5% CO2 for 24 h. After discarding supernatant, growth medium (200 μL), containing either Aβ3-40 or vehicle (controls), was added to the wells, followed by test compound in DMSO (0.5 μL) or DMSO alone (controls). Incubations all had 5 or more replicates. After incubating for 6-10 h (37° C., 5% C02), the dye 3-(4,5-dimethylthiazol-2-yl)-2,5-diphenyltetrazolium bromide (MTT, 20 microL. 5 mg/mL in PBS) was added to each well and the plate incubated for another 2 h. Medium was discarded and the formazan product dissolved by adding DMSO (100 μL) and shaking. Absorbance was measured at 540 nm in a Tecan Genios microplate reader.

α-synuclein = α-synuclein (Homo sapiens, UniProt P37840); assay: ThT fluorescence assay, α-synuclein aggregation; type: biochemical; conditions: α-synuclein 4 μM, 96 hours, 37° C.
Description: (§6) The following procedures were used. The compounds were examined by circular dichroism (CD) to confirm their anti-amyloidogenic activity and were further evaluated for inhibition of both tau and α-synuclein aggregation in Thioflavin S (ThS) and ThT dye-binding fluorescence assays, respectively. The compounds were also evaluated in a MTT [3-(4,5-dimethylthiazol-2-yl)-2,5-diphenyltetrazolium bromide] cell viability assay (Kaneko, I., et al., J. Neurochem. (1995) 65: 2585-93). Pharmacokinetic (PK) testing was also performed. Compounds administered to mice (IP or PO dosing) had no toxicity at doses up to 300 mg/kg and were present in brain more than four hours after administration.
(§7) Dye-binding ThT/ThS protein aggregation assays for Aβ, tau and α-synuclein were performed as described in Example 8 of US2007/0015813.

Tau 441 [5] = target: T2, Tau 441 (Homo sapiens, UniProt P10636); assay: Tris-tricine SDS-PAGE, Tau 441 self-assembly following ThS aggregation assay; type: biochemical; conditions: FIG. 10; for effect on Tau 441 self-assembly, monomer fragmentation (SDS-PAGE): relative to control
T2 sequence (P10636 1-441 isoform P10636-8): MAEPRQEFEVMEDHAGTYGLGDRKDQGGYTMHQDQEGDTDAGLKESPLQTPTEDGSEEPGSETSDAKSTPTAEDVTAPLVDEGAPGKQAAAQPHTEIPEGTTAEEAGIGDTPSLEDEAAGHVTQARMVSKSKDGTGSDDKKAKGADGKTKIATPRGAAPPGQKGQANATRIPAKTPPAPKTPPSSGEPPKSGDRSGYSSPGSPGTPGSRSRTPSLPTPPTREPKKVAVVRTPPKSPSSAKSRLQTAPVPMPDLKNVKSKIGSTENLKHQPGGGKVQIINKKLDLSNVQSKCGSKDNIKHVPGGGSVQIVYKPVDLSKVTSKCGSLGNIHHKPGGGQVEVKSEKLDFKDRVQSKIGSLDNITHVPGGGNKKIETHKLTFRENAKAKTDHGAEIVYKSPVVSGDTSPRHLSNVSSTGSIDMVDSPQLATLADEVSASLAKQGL
Description: as §1, §2, §3, §4

Tau 441 [6] = target: T2, Tau 441; assay: ThS fluorescence assay, Tau 441 aggregation; type: biochemical; conditions: Tau 441 6 μM; compound 50 μM and 10 μM; 24 hours, 37° C., FIG. 15
Description: as §6, §7

Tau 441 [7] = target: T2, Tau 441; assay: TEM of Tau 441 fibrils following ThS aggregation assay; type: biochemical; conditions: Tau 441 6 μM, compound 20 μM, FIG. 14
Description: as §5

[8] = compound 50 μM and 10 μM, FIG. 17
[9] = compound 100 μM and 20 μM, FIG. 16

T1 sequence (P05067 672-711 limits assumed): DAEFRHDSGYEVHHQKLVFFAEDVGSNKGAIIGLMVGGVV

IC50 (Aβ1-40 [3]): 34.4 µM
SMILES: O=C(O)c1cccc2c(-c3c[nH]c4ccccc34)c[nH]c12 [QR-0112]
effect on distribution of Aβ1-40 among states of assembly / monomer (SDS-PAGE) (Aβ1-40 [1]): increase in the concentration of Aβ1-40 monomer
Aβ1-40 fibril formation (TEM) (Aβ1-40 [2]; compound 20 μM, following ThT aggregation assay, FIG. 11): increase in fibril formation but of a different morphology
% cell viability, protection from Aβ40 ([4]; 50 μM compound): significantly protective
% cell viability, protection from Aβ40 ([4]; 2 and 10 μM compound): trends towards protection

SMILES: O=C(O)c1ccc2[nH]cc(-c3c[nH]c4ccc(O)cc34)c2c1 [QR-0142]
effect on distribution of Aβ1-40 among states of assembly / monomer (SDS-PAGE) (Aβ1-40 [1]): increase in the concentration of Aβ1-40 monomer

SMILES: Oc1ccc2[nH]cc(-c3c[nH]c4ncccc34)c2c1 [QR-0161]
% cell viability, protection from Aβ40 ([4]; 20 and 50 μM compound): significantly active

IC50 (Aβ1-40 [3]): 17.5 µM
inhibition of α-synuclein aggregation (ThT fluorescence) (α-synuclein; [8]): showed inhibition
SMILES: O=C(O)c1ccc2c(c1)c(-c1ccc3cc(O)ccc3c1)cn2Cc1ccccc1 [QR-0162, 1-Benzyl-3-(6-hydroxynaphthalen-2-yl)-indole-5-carboxylic acid]

IC50 (Aβ1-40 [3]): 3 µM
inhibition of α-synuclein aggregation (ThT fluorescence) (α-synuclein; [8]): showed inhibition
SMILES: Oc1cc2ccccc2c(-c2cc3ccccc3o2)c1O [QR-0164, 2-(2,3-Dihydroxynaphthalen-1-yl)-benzofuran]

IC50 (Aβ1-40 [3]): 1.99 µM
inhibition of α-synuclein aggregation (ThT fluorescence) (α-synuclein; [9]): showed inhibition
SMILES: O=C(O)c1ccc2[nH]cc(-c3c[nH]c4cccc(O)c34)c2c1 [QR-0176]

IC50 (Aβ1-40 [3]): 19 µM
inhibition of α-synuclein aggregation (ThT fluorescence) (α-synuclein; [9]): showed inhibition
SMILES: Oc1cc2ccccc2c(-c2c[nH]c3ccccc23)c1O [QR-0189]

IC50 (Aβ1-40 [3]): 8.2 µM
inhibition of α-synuclein aggregation (ThT fluorescence) (α-synuclein; [9]): showed inhibition
SMILES: Oc1ccc2[nH]cc(-c3c(O)c(O)cc4ccccc34)c2c1 [QR-0212, 5-hydroxy-3-(2,3-dihydroxyynathalen-1-yl)-1H-indole]

IC50 (Aβ1-40 [3]): 5.6 µM
Tau 441 dimer and trimer bands (SDS-PAGE) (Tau 441 [5]): appearance of dimer and trimer bands
inhibition of Tau 441 aggregation (ThS fluorescence) (Tau 441 [6]): greatly inhibited
SMILES: O=C(O)c1cc2cc(-c3cc4ccccc4o3)ccc2c(Br)c1O [QR-0244, 7-(Benzofuran-2-y)-4-bromo-3-hydroxynaphthalene-2-carboxylic acid]
effect on Tau 441 self-assembly, monomer fragmentation (SDS-PAGE) (Tau 441 [5]): decreased fragmentation of tau 441 monomer

Tau 441 fibril formation (TEM) (Tau 441 [7]): increase in fibril formation
IC50 (Aβ1-40 [3]): 4.4 µM
effect on Tau 441 self-assembly, monomer fragmentation (SDS-PAGE) (Tau 441 [5]): no clear effect
inhibition of Tau 441 aggregation (ThS fluorescence) (Tau 441 [6]): only moderately inhibited
SMILES: COc1ccc2cc(-c3c[nH]c4c(C(=O)O)cccc34)ccc2c1 [QR-0262, 3-(2-Methoxynaphthalen-6-yl)-1H-indole-7-carboxylic acid]
Tau 441 assemblies seen (TEM) (Tau 441 [7]): spherical assemblies that were not present in the control

Aβ1-40 fibrils (TEM) (Aβ1-40 [2]; absence of ThT, compound at 20, FIG. 12): reduction in fibrils
IC50 (Aβ1-40 [3]): 1.93 µM
Tau 441 dimer and trimer bands (SDS-PAGE) (Tau 441 [5]): appearance of dimer and trimer bands
inhibition of Tau 441 aggregation (ThS fluorescence) (Tau 441 [6]): greatly inhibited
SMILES: O=C(O)c1cc2cc(-c3ccc4cc(O)ccc4c3)ccc2c(Br)c1O [QR-0263, 4-bromo-3-hydroxy-7-(2-hydroxynaphthalen-6-yl)naphthalene-2-carboxylic acid]
effect on Tau 441 self-assembly, monomer fragmentation (SDS-PAGE) (Tau 441 [5]): decreased fragmentation of tau 441 monomer

effect on distribution of Aβ1-40 among states of assembly / monomer (SDS-PAGE) (Aβ1-40 [1]): little effect
IC50 (Aβ1-40 [3]): 16.5 µM
SMILES: N#Cc1ccc2[nH]cc(-c3c[nH]c4ccc(O)cc34)c2c1 [QR-0276]

Tau 441 fibril formation (TEM) (Tau 441 [7]): increase in fibril formation
IC50 (Aβ1-40 [3]): 4.6 µM
Tau 441 dimer and trimer bands (SDS-PAGE) (Tau 441 [5]): appearance of dimer and trimer bands
inhibition of Tau 441 aggregation (ThS fluorescence) (Tau 441 [6]): greatly inhibited
SMILES: O=C(O)c1cc2cc(-c3ccc4c(c3)OCCO4)ccc2c(Br)c1O [QR-0281, 4-Bromo-7-(2,3-dihydrobenzo[b][1,4]dioxin-7-yl)-3-hydroxyynaphthalene-2-carboxylic acid]
Tau 441 assemblies seen (TEM) (Tau 441 [7]): spherical assemblies that were not present in the control
effect on Tau 441 self-assembly, monomer fragmentation (SDS-PAGE) (Tau 441 [5]): decreased fragmentation of tau 441 monomer

Aβ1-40 dimer band (SDS-PAGE) (Aβ1-40 [1]): appearance of a dimer band
SMILES: COc1c(C(=O)O)cc2cc(-c3ccc4c(c3)OCCO4)ccc2c1Br [QR-0282, 4-Bromo-7-(2,3-dihydrobenzo[b][1,4]dioxin-7-yl)-3-methoxynaphthalene-2-carboxylic acid]
effect on distribution of Aβ1-40 among states of assembly / monomer (SDS-PAGE) (Aβ1-40 [1]): increase in the concentration of Aβ1-40 monomer

inhibition of α-synuclein aggregation (ThT fluorescence) (α-synuclein; [9]): showed inhibition
SMILES: Oc1ccc(C=Cc2cc(O)cc(O)c2)cc1 [resveratrol, reference compound]
